Source: ChEMBL document CHEMBL3885861, “Open TG-GATES”

Species on record: Rattus norvegicus
Assay: Open TG-GATES - Regimen: Single
Format: toxicity, organism-based, Sprague-Dawley
Set-up: regimen Single, gender Male, age 6 weeks
Settings: in vivo, po, route gavage; for APTT / Bas / Eos / Fbg / Hb / Ht / Lym / MCH / MCHC / MCV / Mono / Neu / PT / Plat / RBC / Ret / WBC: tissue Blood; for KIDNEY_L / KIDNEY_R / KIDNEY_TOTAL: tissue Kidney; for LIVER: tissue Liver; for A/G / ALP / ALT / AST / BUN / CRE / Ca / Cl / DBIL / GLC / IP / K / LDH / Na / PL / RALB / TBIL / TC / TG / TP / gamma-GTP: tissue Plasma
[1] = 100 mg/kg, 3 h, dose level Middle
[2] = 100 mg/kg, 6 h, dose level Middle
[3] = 100 mg/kg, 9 h, dose level Middle
[4] = 100 mg/kg, 24 h, dose level Middle
[5] = 300 mg/kg, 3 h, dose level High
[6] = 300 mg/kg, 6 h, dose level High
[7] = 300 mg/kg, 9 h, dose level High
[8] = 300 mg/kg, 24 h, dose level High

## Nc1ccc(Cc2ccc(N)cc2)cc1
[1]
  TERMINAL_BW: 212.4 g
  APTT: 14.4 s
  Bas: 0%
  Eos: 0.6%
  Fbg: 268.8 mg/dL
  Hb: 13 g/dL
  Ht: 38%
  Lym: 75.8%
  MCH: 21 pg
  MCHC: 34.2%
  MCV: 61.4 fL
  Mono: 3.8%
  Neu: 19.4%
  PT: 11.7 s
  Plat: 154.4 x10_4/uL
  RBC: 618.6 x10_4/ul
  Ret: 8.7%
  WBC: 83.6 x10_2/uL
  KIDNEY_L: 0.8 g
  KIDNEY_R: 0.9 g
  KIDNEY_TOTAL: 1.7 g
  LIVER: 9.1 g
  A/G: 0.8
  ALP: 1470.6 IU/L
  ALT: 45.6 IU/L
  AST: 82.8 IU/L
  BUN: 11 mg/dL
  CRE: 0.2 mg/dL
  Ca: 10.9 mg/dL
  Cl: 104 meq/L
  DBIL: 0.028 mg/dL
  GLC: 173.6 mg/dL
  IP: 9.4 mg/dL
  K: 4 meq/L
  LDH: 64.4 IU/L
  Na: 140.2 meq/L
  PL: 155.6 mg/dL
  RALB: 2.5 g/dL
  TBIL: 0.074 mg/dL
  TC: 86.4 mg/dL
  TG: 73 mg/dL
  TP: 5.6 g/dL
  gamma-GTP: 1.2 IU/L
[2]
  TERMINAL_BW: 206.8 g
  APTT: 14.6 s
  Bas: 0%
  Eos: 0.6%
  Fbg: 278 mg/dL
  Hb: 13.4 g/dL
  Ht: 39.2%
  Lym: 62.4%
  MCH: 21.2 pg
  MCHC: 34.1%
  MCV: 62.3 fL
  Mono: 3.6%
  Neu: 32.2%
  PT: 11.8 s
  Plat: 144.9 x10_4/uL
  RBC: 630.2 x10_4/ul
  Ret: 8.2%
  WBC: 104 x10_2/uL
  KIDNEY_L: 0.9 g
  KIDNEY_R: 0.9 g
  KIDNEY_TOTAL: 1.9 g
  LIVER: 9.3 g
  A/G: 0.8
  ALP: 1520.8 IU/L
  ALT: 42.8 IU/L
  AST: 94.8 IU/L
  BUN: 8.8 mg/dL
  CRE: 0.2 mg/dL
  Ca: 10.5 mg/dL
  Cl: 104.6 meq/L
  DBIL: 0.1 mg/dL
  GLC: 176.2 mg/dL
  IP: 9.5 mg/dL
  K: 4 meq/L
  LDH: 90 IU/L
  Na: 140.2 meq/L
  PL: 152.4 mg/dL
  RALB: 2.5 g/dL
  TBIL: 0.2 mg/dL
  TC: 79 mg/dL
  TG: 53.2 mg/dL
  TP: 5.6 g/dL
  gamma-GTP: 2.6 IU/L
[3]
  TERMINAL_BW: 205.5 g
  APTT: 14.8 s
  Bas: 0%
  Eos: 0.8%
  Fbg: 285.4 mg/dL
  Hb: 13 g/dL
  Ht: 37.8%
  Lym: 68.6%
  MCH: 21.2 pg
  MCHC: 34.2%
  MCV: 61.9 fL
  Mono: 2.8%
  Neu: 27.6%
  PT: 12.1 s
  Plat: 139.1 x10_4/uL
  RBC: 610.8 x10_4/ul
  Ret: 7.8%
  WBC: 72.9 x10_2/uL
  KIDNEY_L: 0.9 g
  KIDNEY_R: 0.9 g
  KIDNEY_TOTAL: 1.8 g
  LIVER: 8 g
  A/G: 0.8
  ALP: 1218.8 IU/L
  ALT: 43.8 IU/L
  AST: 105 IU/L
  BUN: 8.2 mg/dL
  CRE: 0.2 mg/dL
  Ca: 10.2 mg/dL
  Cl: 106.2 meq/L
  DBIL: 0.2 mg/dL
  GLC: 167.6 mg/dL
  IP: 9.4 mg/dL
  K: 4.5 meq/L
  LDH: 99 IU/L
  Na: 142.4 meq/L
  PL: 166.2 mg/dL
  RALB: 2.4 g/dL
  TBIL: 0.3 mg/dL
  TC: 86.8 mg/dL
  TG: 39.8 mg/dL
  TP: 5.3 g/dL
  gamma-GTP: 3.4 IU/L
[4]
  TERMINAL_BW: 195.3 g
  APTT: 16.4 s
  Bas: 0%
  Eos: 0.4%
  Fbg: 474.8 mg/dL
  Hb: 12.6 g/dL
  Ht: 35.7%
  Lym: 62.4%
  MCH: 21.5 pg
  MCHC: 35.4%
  MCV: 60.6 fL
  Mono: 5%
  Neu: 31%
  PT: 11.5 s
  Plat: 149.3 x10_4/uL
  RBC: 589 x10_4/ul
  Ret: 6.7%
  WBC: 118.7 x10_2/uL
  KIDNEY_L: 0.9 g
  KIDNEY_R: 0.9 g
  KIDNEY_TOTAL: 1.8 g
  LIVER: 7.8 g
  A/G: 0.8
  ALP: 3282.4 IU/L
  ALT: 252.8 IU/L
  AST: 532.6 IU/L
  BUN: 11.2 mg/dL
  CRE: 0.2 mg/dL
  Ca: 11.1 mg/dL
  Cl: 102.2 meq/L
  DBIL: 2.3 mg/dL
  GLC: 136.2 mg/dL
  IP: 9.6 mg/dL
  K: 3.8 meq/L
  LDH: 332.8 IU/L
  Na: 143.8 meq/L
  PL: 302.6 mg/dL
  RALB: 2.4 g/dL
  TBIL: 3.1 mg/dL
  TC: 135.2 mg/dL
  TG: 63.4 mg/dL
  TP: 5.6 g/dL
  gamma-GTP: 8.6 IU/L
[5]
  TERMINAL_BW: 208.2 g
  APTT: 15.8 s
  Bas: 0%
  Eos: 0.8%
  Fbg: 257.6 mg/dL
  Hb: 13.2 g/dL
  Ht: 38.1%
  Lym: 67.2%
  MCH: 22 pg
  MCHC: 34.5%
  MCV: 63.6 fL
  Mono: 6%
  Neu: 25.6%
  PT: 12.1 s
  Plat: 142.6 x10_4/uL
  RBC: 600 x10_4/ul
  Ret: 8.7%
  WBC: 64.7 x10_2/uL
  KIDNEY_L: 0.9 g
  KIDNEY_R: 0.9 g
  KIDNEY_TOTAL: 1.8 g
  LIVER: 9 g
  A/G: 0.8
  ALP: 1363.8 IU/L
  ALT: 64 IU/L
  AST: 137.4 IU/L
  BUN: 10.6 mg/dL
  CRE: 0.2 mg/dL
  Ca: 10.5 mg/dL
  Cl: 102 meq/L
  DBIL: 0.094 mg/dL
  GLC: 183.4 mg/dL
  IP: 9.4 mg/dL
  K: 4 meq/L
  LDH: 175.4 IU/L
  Na: 139.8 meq/L
  PL: 170.8 mg/dL
  RALB: 2.5 g/dL
  TBIL: 0.2 mg/dL
  TC: 81.4 mg/dL
  TG: 79 mg/dL
  TP: 5.4 g/dL
  gamma-GTP: 2.6 IU/L
[6]
  TERMINAL_BW: 207.7 g
  APTT: 15.1 s
  Bas: 0%
  Eos: 0.6%
  Fbg: 257.4 mg/dL
  Hb: 13.3 g/dL
  Ht: 38.2%
  Lym: 60.6%
  MCH: 21 pg
  MCHC: 34.8%
  MCV: 60.2 fL
  Mono: 3.4%
  Neu: 34.6%
  PT: 11.9 s
  Plat: 133.9 x10_4/uL
  RBC: 634.6 x10_4/ul
  Ret: 7.3%
  WBC: 78.7 x10_2/uL
  KIDNEY_L: 0.9 g
  KIDNEY_R: 0.9 g
  KIDNEY_TOTAL: 1.9 g
  LIVER: 8.9 g
  A/G: 0.8
  ALP: 1513.4 IU/L
  ALT: 67 IU/L
  AST: 168.6 IU/L
  BUN: 11.8 mg/dL
  CRE: 0.2 mg/dL
  Ca: 10.2 mg/dL
  Cl: 100.8 meq/L
  DBIL: 0.4 mg/dL
  GLC: 172.6 mg/dL
  IP: 9.1 mg/dL
  K: 4.2 meq/L
  LDH: 196.8 IU/L
  Na: 140.8 meq/L
  PL: 152.8 mg/dL
  RALB: 2.3 g/dL
  TBIL: 0.6 mg/dL
  TC: 79.8 mg/dL
  TG: 42.6 mg/dL
  TP: 5.1 g/dL
  gamma-GTP: 5 IU/L
[7]
  TERMINAL_BW: 208 g
  APTT: 13.8 s
  Bas: 0%
  Eos: 0.4%
  Fbg: 257 mg/dL
  Hb: 12.6 g/dL
  Ht: 35.8%
  Lym: 52.2%
  MCH: 21.1 pg
  MCHC: 35.1%
  MCV: 60.1 fL
  Mono: 3.6%
  Neu: 42.6%
  PT: 11.9 s
  Plat: 139.7 x10_4/uL
  RBC: 595.6 x10_4/ul
  Ret: 7.8%
  WBC: 85.3 x10_2/uL
  KIDNEY_L: 0.9 g
  KIDNEY_R: 0.9 g
  KIDNEY_TOTAL: 1.9 g
  LIVER: 8.6 g
  A/G: 0.8
  ALP: 1671 IU/L
  ALT: 132.8 IU/L
  AST: 365.6 IU/L
  BUN: 11.8 mg/dL
  CRE: 0.2 mg/dL
  Ca: 10.3 mg/dL
  Cl: 101.6 meq/L
  DBIL: 0.7 mg/dL
  GLC: 176.2 mg/dL
  IP: 9.2 mg/dL
  K: 4.3 meq/L
  LDH: 351 IU/L
  Na: 142 meq/L
  PL: 173 mg/dL
  RALB: 2.3 g/dL
  TBIL: 1 mg/dL
  TC: 85 mg/dL
  TG: 45.2 mg/dL
  TP: 5.1 g/dL
  gamma-GTP: 7.4 IU/L
[8]
  TERMINAL_BW: 197.2 g
  APTT: 16.2 s
  Bas: 0%
  Eos: 1%
  Fbg: 321.4 mg/dL
  Hb: 12 g/dL
  Ht: 33.2%
  Lym: 52.8%
  MCH: 21.6 pg
  MCHC: 36%
  MCV: 59.8 fL
  Mono: 6.2%
  Neu: 39%
  PT: 11.9 s
  Plat: 148.1 x10_4/uL
  RBC: 554.4 x10_4/ul
  Ret: 6%
  WBC: 157.9 x10_2/uL
  KIDNEY_L: 0.9 g
  KIDNEY_R: 0.9 g
  KIDNEY_TOTAL: 1.8 g
  LIVER: 7.5 g
  A/G: 0.8
  ALP: 3659.6 IU/L
  ALT: 566.8 IU/L
  AST: 1154.8 IU/L
  BUN: 12 mg/dL
  CRE: 0.2 mg/dL
  Ca: 11 mg/dL
  Cl: 102.6 meq/L
  DBIL: 2.2 mg/dL
  GLC: 145.6 mg/dL
  IP: 8.7 mg/dL
  K: 4 meq/L
  LDH: 788.8 IU/L
  Na: 144.2 meq/L
  PL: 346.4 mg/dL
  RALB: 2.4 g/dL
  TBIL: 3.2 mg/dL
  TC: 145.2 mg/dL
  TG: 133.6 mg/dL
  TP: 5.6 g/dL
  gamma-GTP: 8.4 IU/L
